Assay results taken from US6743817B2, “Substituted fused pyrroleimines and pyrazoleimines” (Neurogen Corporation, priority 2000, dated 2004).

melting point: 259 to 261 °C (dec.)
SMILES: COc1ccc(NC(=O)c2n[nH]c3c2C(=NC(C)C)CCC3)cc1F
